Where two headings read alike, the source gives them in different places.
Experiments:
[1] = test system: Enterococcus faecium; assay: Antibacterial MIC (broth microdilution); type: cell-based; conditions: isolate 1593
[2] = test system: Candida albicans; assay: Antifungal MIC (RPMI-1640 microdilution); type: cell-based
[3] = test system: E. coli; assay: Antibacterial MIC (broth microdilution); type: cell-based
Description: Growth Medium—Cation adjusted Mueller-Hinton broth was used as the test medium. Broth for panel preparation was prepared from commercial dehydrated medium (Difco formulation, BD Diagnostics, catalog number 275730).
Dilution of Investigational Agents—Polystyrene test tubes were used to prepare the drug dilutions and sterile U-shaped 96-well polystyrene microtiter trays were used for performing the MIC assays. Stock solutions of the investigational agents were prepared at concentrations 100-times the highest concentration to be tested (6400-1.25 μg/ml) using dimethyl sulfoxide. Aliquots of the stock solutions were dispensed into polypropylene vials and stored at −20° C. Further dilutions (1:50) were made in the culture medium (cation-adjusted Mueller-Hinton medium).
After the dilutions of the working 2-fold investigational antibacterial solutions were prepared, 50 μL of each concentration was transferred into rows of the first 10 wells of each 12-well column of the U-shaped disposable 96-well microtiter trays using a multichannel pipettor. The 11th well in each row served as the sterility control, and the 12th well contained only culture medium to serve as the growth control for each isolate. In like manner, the control drug for the organism being tested was prepared in a separate 96 well panel exactly as described above. A 50 μL volume of the standardized inoculum suspension of each test isolate was prepared in culture medium to directly inoculate each test well of the drug containing microtiter tray.
Inoculum Preparation—Colonies of each strain generated on sheep blood agar plates with overnight growth at 35° C. in ambient air were used to directly prepare a suspension equivalent in density to the 0.5 McFarland opacity standard. The exact turbidity of each suspension was determined using a desktop portable photometer. For panels containing 2× drug concentrations, a 1:100 dilution of the McFarland organism suspension was prepared in cation-adjusted Mueller-Hinton broth and 50 μL aliquots of each test (and control) strain was added to each well of the designated rows of the microtiter trays using a multichannel pipettor. The target inoculum concentration was 5×10^5 CFU/ml in each well.
Trays were removed and each well were inspected for evidence of growth (turbidity). The MIC was defined as the lowest concentration of the investigational agent and the control drug that prevents visibly discernible growth in the test wells.

[4] = rat, in vivo, 125 mg/kg; cited from earlier work
[5] = test system: Babesia; conditions: mice; cited from earlier work

Compound `COc1cc(C)c2c(Oc3cccc(C(F)(F)F)c3)c(OC)cc(NC(C)CCCN)c2n1.O=C(O)CCC(=O)O` (stereo not drawn) [Tafenoquine Succinate] has an MIC [1] of 8 µg/mL, an MIC50 ([2]; ATCC90028, read-out: MIC 50% inhibition, isolate ATCC 90028) of 4 µg/mL and an MIC ([2]; ATCC90028, read-out: MIC 100% inhibition, isolate ATCC 90028) of 4 µg/mL. The MIC50 ([2]; read-out: MIC 50% inhibition, isolate CA3) was 4 µg/mL, the MIC50 ([2]; read-out: MIC 50% inhibition, isolate SC5314) was 8 µg/mL and the MIC ([2]; read-out: MIC 100% inhibition, isolate CA3) was 4 µg/mL. For the same compound, the MIC ([2]; read-out: MIC 100% inhibition, isolate SC5314) was 8 µg/mL, the MIC ([3]; Escherichia coli, ATCC25922, isolate ATCC 25922, read-out: MIC) was > 64 µg/mL and the MIC ([3]; Escherichia coli, isolate J4243 (MO72), read-out: MIC) was > 64 µg/mL. The MIC ([3]; isolate J4244 (JJ1886)) was >64 µg/mL.

In the case of `COc1cc(C)c2c(Oc3cccc(C(F)(F)F)c3)c(OC)cc(NC(C)CCCN)c2n1` (stereo not drawn) [Tafenoquine, N(4)-[2,6-Dimethoxy-4-methyl-5-[3-(trifluoromethyl)phenoxy]quinolin-8-yl]pentane-1,4-diamine], the “Maximum plasma concentration following a single 125 mpk dose in female rats” value [4] is given as 2240 ng/mL and the “dose clearing Babesia parasitemia” value [5] is given as 20 mg/kg.

Source: patent publication US12691107B2, “Methods for the treatment and prevention of lung infections caused by gram-positive bacteria, fungus, or virus by administration of tafenoquine” (priority 2020, dated 2026)
